From ChEMBL document CHEMBL1201862, “PubChem BioAssay data set” (2004)
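Each compound was tested at five concentrations against cells in 96-well plates for 48 hours. Here, GI50 denotes the concentration required for 50% inhibition of growth.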 Calls of active or inactive are those of the source. Cut-off read from the data, not from the text of the source: active = GI50 up to about 1.1 µM and inactive = higher.

Tests used:
Assay in all cases: NCI tumour cell line growth inhibition, 48 h
TK-10 = test system: TK-10
PC-3 = test system: PC-3
SK-MEL-28 = test system: SK-MEL-28
SW-620 = test system: SW-620
OVCAR-8 = test system: OVCAR-8
SK-OV-3 = test system: SK-OV-3
HOP-62 = test system: HOP-62
CCRF-CEM = test system: CCRF-CEM
SR = test system: SR
HCT-15 = test system: HCT-15
M14 = test system: M14
EKVX = test system: EKVX
MDA-MB-435 = test system: MDA-MB-435
HOP-92 = test system: HOP-92
DU-145 = test system: DU-145
NCI/ADR-RES = test system: NCI/ADR-RES
RXF 393 = test system: RXF 393
NCI-H23 = test system: NCI-H23
T47D = test system: T47D
U-251 = test system: U-251
HL-60 = test system: HL-60
BT-549 = test system: BT-549
NCI-H522 = test system: NCI-H522
HCC 2998 = test system: HCC 2998
A498 = test system: A498
LOX IMVI = test system: LOX IMVI
SNB-19 = test system: SNB-19
NCI-H226 = test system: NCI-H226
SF-539 = test system: SF-539
NCI-H460 = test system: NCI-H460
SN12C = test system: SN12C
SF-295 = test system: SF-295
SF-268 = test system: SF-268
COLO 205 = test system: COLO 205
UACC-257 = test system: UACC-257
Hs-578T = test system: Hs-578T
KM12 = test system: KM12
MOLT-4 = test system: MOLT-4
MCF7 = test system: MCF7
UACC-62 = test system: UACC-62
HT-29 = test system: HT-29
OVCAR-3 = test system: OVCAR-3
OVCAR-5 = test system: OVCAR-5
MDA-MB-231 = test system: MDA-MB-231
786-0 = test system: 786-0
CAKI-1 = test system: CAKI-1
ACHN = test system: ACHN
RPMI-8226 = test system: RPMI-8226
Malme-3M = test system: Malme-3M
IGROV-1 = test system: IGROV-1
SNB-75 = test system: SNB-75
OVCAR-4 = test system: OVCAR-4
HCT-116 = test system: HCT-116
SK-MEL-5 = test system: SK-MEL-5
A549 = test system: A549

Compound: CCCCCCCC1(N=[N+]=[N-])C(=O)c2ccccc2N(C)C1=O (stereo not given)
- GI50 (TK-10): > 100 µM (inactive)
- GI50 (PC-3): > 100 µM (inactive)
- GI50 (SK-MEL-28): > 100 µM (inactive)
- GI50 (SW-620): > 100 µM (inactive)
- GI50 (OVCAR-8): 86.5 µM (inactive)
- GI50 (SK-OV-3): > 100 µM (inactive)
- GI50 (HOP-62): > 100 µM (inactive)
- GI50 (CCRF-CEM): 7.55 µM (inactive)
- GI50 (SR): > 100 µM (inactive)
- GI50 (HCT-15): > 100 µM
- GI50 (M14): > 100 µM (inactive)
- GI50 (EKVX): > 100 µM (inactive)
- GI50 (MDA-MB-435): 89.9 µM (inactive)
- GI50 (HOP-92): 22.5 µM (inactive)
- GI50 (DU-145): > 100 µM (inactive)
- GI50 (NCI/ADR-RES): 35.6 µM (inactive)
- GI50 (RXF 393): 69.8 µM (inactive)
- GI50 (NCI-H23): 48 µM (inactive)
- GI50 (T47D): 68.9 µM (inactive)
- GI50 (U-251): > 100 µM (inactive)
- GI50 (HL-60): 54.1 µM (inactive)
- GI50 (BT-549): 88.5 µM (inactive)
- GI50 (NCI-H522): 64.9 µM (inactive)
- GI50 (HCC 2998): > 100 µM (inactive)
- GI50 (A498): > 100 µM (inactive)
- GI50 (LOX IMVI): 97.1 µM (inactive)
- GI50 (SNB-19): > 100 µM (inactive)
- GI50 (NCI-H226): > 100 µM (inactive)
- GI50 (SF-539): > 100 µM (inactive)
- GI50 (NCI-H460): > 100 µM (inactive)
- GI50 (SN12C): > 100 µM (inactive)
- GI50 (SF-295): > 100 µM (inactive)
- GI50 (SF-268): 93.8 µM (inactive)
- GI50 (COLO 205): > 100 µM (inactive)
- GI50 (UACC-257): 57.8 µM (inactive)
- GI50 (Hs-578T): > 100 µM (inactive)
- GI50 (KM12): > 100 µM (inactive)
- GI50 (MOLT-4): > 100 µM (inactive)
- GI50 (MCF7): > 100 µM (inactive)
- GI50 (UACC-62): 72.9 µM (inactive)
- GI50 (HT-29): 40.1 µM (inactive)
- GI50 (OVCAR-3): 49 µM (inactive)
- GI50 (OVCAR-5): > 100 µM (inactive)
- GI50 (MDA-MB-231): > 100 µM (inactive)
- GI50 (786-0): > 100 µM (inactive)
- GI50 (CAKI-1): > 100 µM (inactive)
- GI50 (ACHN): 75 µM (inactive)
- GI50 (RPMI-8226): 56.1 µM (inactive)
- GI50 (Malme-3M): > 100 µM (inactive)
- GI50 (IGROV-1): > 100 µM (inactive)
- GI50 (SNB-75): > 100 µM (inactive)
- GI50 (OVCAR-4): 87.3 µM (inactive)
- GI50 (HCT-116): 61 µM (inactive)
- GI50 (SK-MEL-5): 69.8 µM (inactive)
- GI50 (A549): 68.5 µM (inactive)
